Measured values reported in the supplement of paper PMC8497498.

Legend:
[1] = tested on: primary human hepatocytes; test: CC20 hepatic nuclei (20% reduction); higher = less toxic
Method: (§1)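 Dose-response of P. vivax liver stages in primary human hepatocytes, with 8 points (10 uM-[…], v1) or 12 points in duplicate (50 uM-280 pM, v2). Read-out is high-content imaging of schizont net growth area, hypnozoite quantity and hepatic nuclei. EC50 and CC20 (20% nuclei loss) were fitted in CDD Vault from the highest-quality independent experiment; toxic-dose bell-shaped points were masked. '>' marks the highest concentration with less than 50% activity, and ND means a non-sigmoidal curve.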

[2] = tested on: Plasmodium vivax liver stage (primary human hepatocyte culture)
Method: as §1

[3] = tested on: Plasmodium vivax liver stage (primary human hepatocyte culture); test: maximum inhibition of schizont net growth area; higher = more active
Method: as §1

[4] = tested on: Plasmodium falciparum 3D7 asexual blood stage; test: EC50 asexual blood stage growth; details: serum: 0.5% AlbuMAX
Method: (§2)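 The Reference Compound Library was tested by 10-point 3-fold dose response against P. cynomolgi Berok K4 asexual blood stages (SYBR proliferation assay, mefloquine background control). Culture medium contained 0.5% AlbuMAX or 20% M. fascicularis serum. P. falciparum 3D7 was tested in a 72-h SYBR Green assay with 0.5% AlbuMAX. Values are geometric mean EC50 over independent experiments; 10 uM is the top dose.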

[5] = tested on: Plasmodium cynomolgi Berok K4 asexual blood stage; test: EC50 asexual blood stage growth
Method: as §2

[6] = P. vivax isolate: Pv914, hepatocyte lot: BGW, assay mode: Prophylactic, 6-day
[7] = P. vivax isolate: Pv914, hepatocyte lot: BGW, assay mode: Radical Cure, 8-day (treatment from day 5 post-infection)
[8] = serum: 20% M. fascicularis serum
[9] = P. vivax isolate: Pv668, hepatocyte lot: BGW, assay mode: Radical Cure, 8-day (treatment from day 5 post-infection)
[10] = P. vivax isolate: Pv360, hepatocyte lot: UBV, assay mode: Radical Cure, 8-day (treatment from day 5 post-infection)
[11] = P. vivax isolate: Pv992, hepatocyte lot: BGW, assay mode: Prophylactic, 6-day
[12] = P. vivax isolate: Pv360, hepatocyte lot: UBV, assay mode: Prophylactic, 6-day
[13] = P. vivax isolate: IVS16-38, hepatocyte lot: PDC, assay mode: Prophylactic, 6-day
[14] = P. vivax isolate: Pv923, hepatocyte lot: BGW, assay mode: Radical Cure, 8-day (treatment from day 5 post-infection)
[15] = P. vivax isolate: Pv796, hepatocyte lot: BGW, assay mode: Radical Cure, 8-day (treatment from day 5 post-infection)

SMILES	CC20 hepatic nuclei [1, 6]	EC50 hypnozoite quantity [2, 6]	EC50 schizont net growth area [2, 6]	maximum inhibition [3, 6]	EC50 asexual blood stage growth [4]	EC50 asexual blood stage growth ([5]; serum: 0.5% AlbuMAX)	EC50 asexual blood stage growth [5, 8]	further results
CS(=O)(=O)c1ccc(-c2cnc(N)c(-c3ccc(C(F)(F)F)nc3)n2)cc1	> 10000 nM	7.29 nM	4.76 nM	101%	178 nM	4880 nM	629 nM	CC20 hepatic nuclei [1, 7]: > 10000 nM; EC50 hypnozoite quantity [2, 7]: > 10000 nM; EC50 schizont net growth area [2, 7]: 23.9 nM; maximum inhibition [3, 7]: 96.4%
O=C(NCCN1CCCC1)c1cc(-c2ccc(CN3CCOCC3)cc2)nc2ccc(F)cc12	> 10000 nM	10.4 nM	2.57 nM	101%	1 nM	1.5 nM	0.7 nM	CC20 hepatic nuclei [1, 7]: > 10000 nM; EC50 hypnozoite quantity [2, 7]: > 10000 nM; EC50 schizont net growth area [2, 7]: 2.35 nM; maximum inhibition [3, 7]: 92.3%
OC(c1cc(C(F)(F)F)nc2c(C(F)(F)F)cccc12)C1CCCCN1 (racemic) [(±)-Mefloquine]	> 3330 nM	> 10000 nM	> 1110 nM	86%	90.1 nM	219 nM	66.4 nM	
O[C@H](c1cc(C(F)(F)F)nc2c(C(F)(F)F)cccc12)[C@@H]1CCCCN1 [(+)-Mefloquine]	13200 nM	14800 nM	5730 nM	98.7%	17.9 nM	31.2 nM	60 nM	CC20 hepatic nuclei [1, 9]: 23300 nM; EC50 hypnozoite quantity [2, 9]: > 50000 nM; maximum inhibition [3, 9]: 93.9%
CCN(CC)CCCNc1ccnc2cc(Cl)ccc12 [AQ-13]	> 10000 nM	> 10000 nM		56.1%	16 nM	78.7 nM	55.9 nM	
Cc1nc(Nc2ncc(N3CCN(C)C(C)C3)c(Nc3cc(C)n(C)n3)n2)cc(C2CC2)c1F (stereo not given) [AZ412]	> 10000 nM	> 3330 nM	686 nM	99.7%	23.2 nM	76.8 nM	56.7 nM	CC20 hepatic nuclei [1, 10]: > 10000 nM; EC50 hypnozoite quantity [2, 10]: > 10000 nM; EC50 schizont net growth area [2, 10]: 381 nM; maximum inhibition [3, 10]: 104%
CCN(CC)Cc1cc(Nc2ccnc3cc(Cl)ccc23)ccc1O [Amodiaquine]					6 nM	19.8 nM	8.1 nM	CC20 hepatic nuclei [1, 11]: > 10000 nM; EC50 hypnozoite quantity [2, 11]: > 10000 nM; EC50 schizont net growth area [2, 11]: 14.1 nM; maximum inhibition [3, 11]: 87.2%
COC1OC2OC3(C)CCC4C(C)CCC(C1C)C24OO3 (stereo not given) [Artemether]					57.5 nM	6.8 nM	6.5 nM	CC20 hepatic nuclei [1, 12]: > 10000 nM; EC50 hypnozoite quantity [2, 12]: > 10000 nM; maximum inhibition [3, 12]: 60.4%
CCC1OC(=O)C(C)C(OC2CC(C)(OC)C(O)C(C)O2)C(C)C(OC2OC(C)CC(N(C)C)C2O)C(C)(O)CC(C)CN(C)C(C)C(O)C1(C)O (stereo not given) [Azithromycin]	> 10000 nM	> 10000 nM	> 370 nM	63.3%	> 10000 nM	> 10000 nM	> 10000 nM	
CC(C)N=C(N)N=C(N)Nc1ccc(Cl)c(Cl)c1 [Chlorproguanil]	> 10000 nM	> 10000 nM	> 1110 nM	98.1%	5340 nM	8450 nM	> 10000 nM	
CCCCCCC[C@@H]1CN[C@H](C(=O)NC(C(C)Cl)C2O[C@H](SC)[C@H](O)[C@@H](O)[C@H]2O)C1 (stereo partly drawn) [Cis-Mirincamycin]	> 10000 nM	> 10000 nM		69.3%	> 10000 nM	7990 nM	> 10000 nM	
Cc1cc(Nc2ccc(S(F)(F)(F)(F)F)cc2)n2nc(C(C)(F)F)nc2n1 [DSM265]					11 nM	6.4 nM	62.5 nM	CC20 hepatic nuclei [1, 13]: > 3070 nM; CC20 hepatic nuclei [1, 14]: > 10000 nM; EC50 hypnozoite quantity [2, 13]: > 3070 nM; EC50 schizont net growth area [2, 13]: 126 nM; EC50 hypnozoite quantity [2, 14]: > 10000 nM; EC50 schizont net growth area [2, 14]: > 1110 nM; maximum inhibition [3, 13]: 100%; maximum inhibition [3, 14]: 69.4%
COc1cc2[nH]c(C)c(-c3ccc(Oc4ccc(OC(F)(F)F)cc4)cc3)c(=O)c2cc1Cl [ELQ-300]	> 10000 nM	> 1110 nM	57.6 nM	97.9%	47.1 nM	42 nM	3.3 nM	
CCNCc1cc(Nc2ccnc3cc(Cl)ccc23)ccc1O [N-Desethylamodiaquine]	> 10000 nM	> 10000 nM	> 3330 nM	74.5%	56 nM	22.2 nM	11.5 nM	
COc1cc(NC(C)CCCN)c2nccc(C)c2c1Oc1ccc(Cl)c(Cl)c1 (stereo not given) [NPC-1161B]	> 10000 nM	> 10000 nM	> 370 nM	91.9%	2860 nM	2760 nM	8200 nM	
CCc1nc(N)nc(N)c1OCCCOc1ccccc1CCC(=O)O [P218]	> 10000 nM	> 10000 nM	51.1 nM	101%	2 nM	0.7 nM	1.7 nM	
CCN(CC)CCCC(C)Nc1cc(OC)cc2cccnc12 (stereo not given) [Pamaquine]					3950 nM	325 nM	187 nM	CC20 hepatic nuclei [1, 11]: > 10000 nM; EC50 hypnozoite quantity [2, 11]: > 3330 nM; EC50 schizont net growth area [2, 11]: > 10000 nM; maximum inhibition [3, 11]: 61%
COc1ccc2nc3cc(Cl)ccc3c(Nc3cc(CN4CCCC4)c(O)c(CN4CCCC4)c3)c2n1 [Pyronaridine]	7910 nM	> 3330 nM	> 3330 nM	99.4%	5 nM	3.5 nM	4 nM	
Clc1ccc2c(N[C@H]3CCCC[C@@H]3Nc3ccnc4cc(Cl)ccc34)ccnc2c1 [Ro 47-7737]	> 3330 nM	> 3330 nM	> 3330 nM	99%	2 nM	4.2 nM	3.6 nM	CC20 hepatic nuclei [1, 10]: > 10000 nM; EC50 hypnozoite quantity [2, 10]: > 10000 nM; EC50 schizont net growth area [2, 10]: > 3330 nM; maximum inhibition [3, 10]: 70.6%
N#Cc1cc(NC(=O)C2c3ccccc3C(=O)N(CC(F)(F)F)C2c2cccnc2)ccc1F (stereo not given) [SJ733]					106 nM	538 nM	293 nM	CC20 hepatic nuclei [1, 15]: > 50000 nM; EC50 hypnozoite quantity [2, 15]: > 50000 nM; maximum inhibition [3, 15]: 56.8%
CN(C)[C@@H]1C(O)=C(C(N)=O)C(=O)[C@@]2(O)C(O)=C3C(=O)c4c(O)cccc4[C@@](C)(O)[C@H]3C[C@@H]12 [Tetracycline]	> 10000 nM	> 10000 nM		56.7%	> 10000 nM	> 10000 nM	> 10000 nM	
